The values that follow are results of earlier work, collected in patent publication US20130101569A1, “HAIR GROWTH STIMULANT” (priority 2011, published 2013).

For series [1], the system named is healthy, older adults with mild memory complaints. The note with it: taken for six months; 485 subjects aged 55 and older.
For series [2] the following is noted: not carbohydrates.

On to `CC/C=C\C/C=C\C/C=C\C/C=C\C/C=C\C/C=C\CCC(=O)O` [algal DHA, 4Z,7Z,10Z,13Z,16Z,19Z)-docosa-4,7,10,13,16,19-hexaenoic acid], for which, in series [1], the heart rate entry was “decreased heart rate”; the memory and learning result was “improved memory and learning”.

For “Chromium(III) picolinate [chromium picolinate]”, in series [2], the cravings for fat result is “reduce cravings for fat”.
